In patent publication US20130244963A1 (Portola Pharmaceuticals, Inc., priority 2010, published 2013):
Each block holds one compound with its values, some of them ahead of it.

Columns and labels:
[1] = tested on: collagen induced arthritis (CIA); assay: Rat Collagen Induced Arthritis (CIA) Model, hind paw inflammation score; format: in vivo; set-up: scale not given here
Description: Holmdahl R, Lorentzen J C, Lu S, Olofsson P, Wester L, Holmberg J, et al. Arthritis in rats with non-immunogenic adjuvants as models for rheumatoid arthritis. […] On day 10, the rats were boosted with a second subcutaneous injection. Test article administration was initiated when at least one hind paw was inflamed (clinical arthritis score=1) and enrollment into a treatment group was designated as day 1 of the study for each individual animal (n=4 to 8/dose group). Progression of disease was evidenced by increased edema and erythema of one or both ankle joints, followed by the involvement of the metatarsal and interphalangeal joints. […] Hind paws were scored daily (inflammation score) for progression of disease and evaluated for histopathological changes in cartilage structure, cellularity, matrix glycoaminoglycans, and synovial inflammation at the end of the 16-day treatment course. […] In Tables below, mean scores are calculated for all animals in dosed group over the entire experimental time course.

[2] = Lymphocyte counts in rats with bovine collagen antibody mediated inflammation; format: in vivo, rat
Description: In 7 control rats treated with vehicle, lymphocyte count was […]. In 4 rats treated with dexamethasone, count=2.32×10^3/μL, p=0.42. However 3 out of 4 of rats did suffer from lymphopenia.

Syk (Y525/526) = assay: BCR-induced Syk (Y525/526) autophosphorylation in NHL cell lines; format: cell-based; details: Homo sapiens, SU-DHL-4; SU-DHL4; read-out: BCR-induced Syk (Y525/526) auto-phosphorylation (IC50)
pBLNK = assay: BCR-induced pBLNK formation in NHL cell lines; format: cell-based; details: Homo sapiens
pERK [3] = assay: BCR-induced pERK formation in NHL cell lines; format: cell-based; details: Homo sapiens
pAKT = assay: BCR-induced pAKT formation in NHL cell lines; format: cell-based; details: Homo sapiens, Ramos
SU-DHL4 [4] = assay: Induction of apoptosis, Annexin V binding; format: cell-based
SU-DHL6 [5] = assay: Induction of apoptosis, Annexin V binding; format: cell-based
SU-DHL4 [6] = assay: Induction of apoptosis, caspase 3 cleavage; format: cell-based
SU-DHL6 [7] = assay: Induction of apoptosis, caspase 3 cleavage; format: cell-based
pERK [8] = assay: B cell activity in human whole blood: BCR-induced pERK formation; format: cell-based; details: healthy normal volunteers, ex vivo
CD69 [9] = assay: B cell activity in human whole blood: BCR-induced CD69 expression; format: cell-based; details: healthy normal volunteers, ex vivo
CD69 [10] = assay: Whole blood B cell activation (CD69) in RA patients with or without MTX; format: cell-based, human; details: blood from RA patients on stable doses of MTX (n=18) versus without MTX (n=14); anti IgD activation
Description: In vitro study of whole blood B cell activation (CD69) in stable RA patients treated with MTX (n=18) or without MTX (n=14).

DHL4 = assay: Viability of DLBCL cell line DHL4 by luminescent ATP detection (Cell Titer Glo); format: cell-based; details: single agents; three days; ATP luminescence
Method: The final concentration of solvent (DMSO) during experimental time course was 1%. The robotic system Biomek 2 was used for all pipetting steps. After three days at 37 degrees in a tissue culture incubator, viability of cells was determined by lysis and luminescent ATP detection. ATP detection was carried out by addition of 20 μL Cell Titer Glo (Promega) following the protocol provided by manufacturer.
The concentrations of the inhibitors required to obtain 50, 75 or 90 percent inhibition are plotted in an isobologram (Tallarida R J. Dose response relations in pharmacology, Chapman and Hall/CRC, 2000).

leukocytes = assay: Leukocyte rolling and adhesion in whole blood on collagen type 1 + JAM-C surface; format: cell-based, human; details: for percentage increase in fluorescence intensity over baseline: Compound 1 3 uM
Description: Junction adhesion molecule C (JAM-C) mediates recruitment and adhesion of leukocytes to synovium of patients with rheumatoid arthritis (Rabquer B J, Arthritis Rheum, 2008; 58(10):3020-9). This is an important step in the etiology of rheumatoid arthritis and disruption of this activity may have therapeutic benefit in the treatment of patients with inflammatory diseases such as RA. In order to use an in-vitro experimental system to mimic migration and adhesion of leukocytes, we have used a collagen and JAM-C coated surface for the assay.
Leukocyte rolling and adhesion in human whole blood (from healthy normal volunteers or patients with rheumatoid arthritis) was monitored using real time fluorescence microscopy. […] Prior to experimentation, leukocytes were labeled in whole blood with Rhodamine 6G to permit visualization by fluorescence microscopy. The increase in fluorescence intensity is proportional to the amount of fluorescently labeled leukocytes recruited under the area of observation. […] For quantitation of inhibitory activity (TABLE), data are presented as percentage increase in fluorescence intensity over baseline 180 and 360 sec post initiation of the blood perfusion (see FIG. 4).

Flt3 = biological target: T1, Flt3 (Homo sapiens, UniProt P36888); details: cited from earlier work
T1 sequence (P36888 27-993): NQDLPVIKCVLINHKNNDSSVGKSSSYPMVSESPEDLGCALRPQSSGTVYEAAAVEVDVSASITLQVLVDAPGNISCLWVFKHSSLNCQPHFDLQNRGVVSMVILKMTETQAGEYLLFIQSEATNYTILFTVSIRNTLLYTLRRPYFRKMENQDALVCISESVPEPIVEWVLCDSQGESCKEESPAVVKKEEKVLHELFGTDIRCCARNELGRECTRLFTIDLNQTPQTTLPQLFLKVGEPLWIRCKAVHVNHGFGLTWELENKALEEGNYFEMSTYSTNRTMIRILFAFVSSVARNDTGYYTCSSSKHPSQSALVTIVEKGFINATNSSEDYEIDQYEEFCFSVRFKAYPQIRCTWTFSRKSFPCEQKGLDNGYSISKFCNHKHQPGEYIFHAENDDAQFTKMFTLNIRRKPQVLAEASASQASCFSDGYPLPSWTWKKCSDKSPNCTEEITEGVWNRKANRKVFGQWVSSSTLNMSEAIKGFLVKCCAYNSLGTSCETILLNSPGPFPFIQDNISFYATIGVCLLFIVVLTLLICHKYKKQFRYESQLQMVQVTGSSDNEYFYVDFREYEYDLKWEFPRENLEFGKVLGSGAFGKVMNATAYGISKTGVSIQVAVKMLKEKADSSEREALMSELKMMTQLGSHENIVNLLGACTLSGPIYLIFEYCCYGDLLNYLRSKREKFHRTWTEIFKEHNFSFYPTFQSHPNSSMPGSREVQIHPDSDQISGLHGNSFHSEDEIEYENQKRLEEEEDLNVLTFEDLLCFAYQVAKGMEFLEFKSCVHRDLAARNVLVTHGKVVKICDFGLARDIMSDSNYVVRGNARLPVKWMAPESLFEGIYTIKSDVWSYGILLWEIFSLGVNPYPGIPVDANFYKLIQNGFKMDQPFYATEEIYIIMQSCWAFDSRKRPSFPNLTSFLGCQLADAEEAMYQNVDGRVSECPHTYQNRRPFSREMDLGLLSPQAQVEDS

cKit = cKit (Homo sapiens, UniProt P10721); details: cited from earlier work
Chain of cKit (P10721 26-976): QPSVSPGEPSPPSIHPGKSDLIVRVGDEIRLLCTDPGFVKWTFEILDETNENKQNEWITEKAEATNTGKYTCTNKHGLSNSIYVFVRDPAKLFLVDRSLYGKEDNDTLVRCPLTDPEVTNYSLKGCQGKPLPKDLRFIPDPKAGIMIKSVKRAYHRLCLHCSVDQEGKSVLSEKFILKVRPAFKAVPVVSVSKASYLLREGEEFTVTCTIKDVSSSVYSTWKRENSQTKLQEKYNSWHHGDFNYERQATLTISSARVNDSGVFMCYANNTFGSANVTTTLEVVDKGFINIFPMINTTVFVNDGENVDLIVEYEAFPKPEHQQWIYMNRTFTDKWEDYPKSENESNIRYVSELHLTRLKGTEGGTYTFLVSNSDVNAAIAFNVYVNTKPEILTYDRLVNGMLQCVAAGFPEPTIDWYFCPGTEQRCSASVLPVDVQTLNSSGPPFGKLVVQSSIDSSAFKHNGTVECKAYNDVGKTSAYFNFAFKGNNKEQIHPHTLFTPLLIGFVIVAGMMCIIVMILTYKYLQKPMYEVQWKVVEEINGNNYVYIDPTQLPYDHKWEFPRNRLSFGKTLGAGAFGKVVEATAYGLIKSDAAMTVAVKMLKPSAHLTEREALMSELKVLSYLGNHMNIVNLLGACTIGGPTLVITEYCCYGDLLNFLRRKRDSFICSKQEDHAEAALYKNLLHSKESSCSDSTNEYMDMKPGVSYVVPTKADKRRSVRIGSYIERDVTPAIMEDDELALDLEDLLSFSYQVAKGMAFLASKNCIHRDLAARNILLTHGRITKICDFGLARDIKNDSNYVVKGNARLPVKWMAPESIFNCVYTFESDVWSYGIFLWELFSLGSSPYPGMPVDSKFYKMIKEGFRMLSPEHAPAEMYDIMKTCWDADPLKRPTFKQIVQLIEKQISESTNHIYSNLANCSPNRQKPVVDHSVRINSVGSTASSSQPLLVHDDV

JAK kinases = details: cited from earlier work
Src kinase = Src kinase (Homo sapiens, UniProt P12931); details: cited from earlier work
Chain of Src kinase (P12931 whole entry): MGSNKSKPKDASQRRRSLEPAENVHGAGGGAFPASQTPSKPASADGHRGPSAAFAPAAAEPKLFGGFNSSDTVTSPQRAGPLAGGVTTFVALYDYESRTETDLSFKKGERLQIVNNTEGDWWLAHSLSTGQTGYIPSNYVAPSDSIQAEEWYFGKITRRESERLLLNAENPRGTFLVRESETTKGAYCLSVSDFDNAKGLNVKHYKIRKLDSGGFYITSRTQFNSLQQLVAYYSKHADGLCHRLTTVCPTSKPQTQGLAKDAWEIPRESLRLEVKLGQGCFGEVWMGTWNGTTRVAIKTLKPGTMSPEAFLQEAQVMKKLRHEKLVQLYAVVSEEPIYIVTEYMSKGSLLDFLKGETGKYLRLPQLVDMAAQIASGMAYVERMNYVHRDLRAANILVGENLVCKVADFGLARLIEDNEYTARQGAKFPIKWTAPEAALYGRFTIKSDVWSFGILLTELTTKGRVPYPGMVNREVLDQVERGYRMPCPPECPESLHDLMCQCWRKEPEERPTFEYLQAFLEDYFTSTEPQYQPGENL

[11] = Compound 1 5 mg/kg, first experimental design (5/15/50 mg/kg)
[12] = Compound 1 5 mg/kg, second experimental design (5/10/15 mg/kg)
[13] = Compound 1 10 mg/kg, second experimental design (5/10/15 mg/kg)
[14] = Compound 1 15 mg/kg, first experimental design (5/15/50 mg/kg)
[15] = Compound 1 15 mg/kg, second experimental design (5/10/15 mg/kg)
[16] = Compound 1 50 mg/kg, first experimental design (5/15/50 mg/kg)

SMILES: NC(=O)c1cnc(N[C@@H]2CCCC[C@@H]2N)nc1Nc1cccc(-n2nccn2)c1 [Compound 1, 4-(3-(2H-1,2,3-triazol-2-yl)phenylamino)-2-((1R,2S)-2-aminocyclohexylamino)pyrimidine-5-carboxamide]
Maximum Inflammation Score measurement [1, 11]: 5.625 | Mean Inflammation Score [1, 11]: 4.868 | Minimum Inflammation Score measurement [1, 11]: 1.5 | Maximum Inflammation Score measurement [1, 12]: 4.75 | Mean Inflammation Score [1, 12]: 3.57 | Minimum Inflammation Score measurement [1, 12]: 1.38 | Maximum Inflammation Score measurement [1, 13]: 3.00 | Mean Inflammation Score [1, 13]: 2.15 | Minimum Inflammation Score measurement [1, 13]: 1.13 | Maximum Inflammation Score measurement [1, 14]: 1.125 | Mean Inflammation Score [1, 14]: 0.949 | Minimum Inflammation Score measurement [1, 14]: 0.75 | Maximum Inflammation Score measurement [1, 15]: 1.38 | Mean Inflammation Score [1, 15]: 1.016 | Minimum Inflammation Score measurement [1, 15]: 0.63 | Maximum Inflammation Score measurement [1, 16]: 1.0 | Mean Inflammation Score [1, 16]: 0.169 | Minimum Inflammation Score measurement [1, 16]: 0 | effect on lymphocyte counts ([2]; administered as a single agent): does not produce a reduction in lymphocyte counts | IC50 (Syk (Y525/526)): […] | IC50 (pBLNK; SU-DHL-4, SU-DHL4): […] | IC50 (pBLNK; SU-DHL-6, SU-DHL6): 10 to 20 nM | IC50 (pERK [3]; Ramos): 0.05 to 0.125 µM | IC50 (pERK [3]; SU-DHL-6, SU-DHL6): 0.1 µM | IC50 (pAKT): 0.05 to 0.125 µM | Induction of apoptosis— Annexin V binding (% +ve cells) (SU-DHL4 [4]): 15.5 % +ve cells | Induction of apoptosis— Annexin V binding (% +ve cells) (SU-DHL6 [5]): 20.3 % +ve cells | Induction of apoptosis— caspase 3 cleavage (% +ve cells) (SU-DHL4 [6]): 26 % +ve cells | Induction of apoptosis— caspase 3 cleavage (% +ve cells) (SU-DHL6 [7]): 47 % +ve cells | IC50 (pERK [8]): 250 to 500 nM | IC50 (CD69 [9]): 250 to 500 nM | Syk inhibitory potency in whole blood B cell activation (CD69) (CD69 [10]): higher (reduced IC50) | inhibitory activity on viability of DHL4 cells (in words) (DHL4): dose responsive inhibitory activity | percentage increase in fluorescence intensity over baseline (leukocytes; RA patient #8 on Adalimumab, 180 sec, vehicle 51%): 7% | percentage increase in fluorescence intensity over baseline (leukocytes; RA patient #8 on Adalimumab, 360 sec, vehicle 94%): 63% | percentage increase in fluorescence intensity over baseline (leukocytes; RA patient #10 on Methotrexate, 180 sec, vehicle 44%): 29% | percentage increase in fluorescence intensity over baseline (leukocytes; RA patient #10 on Methotrexate, 360 sec, vehicle 107%): 86% | percentage increase in fluorescence intensity over baseline (leukocytes; RA patient #11 on Methotrexate + prednisone, 180 sec, vehicle 165%): 69% | percentage increase in fluorescence intensity over baseline (leukocytes; RA patient #11 on Methotrexate + prednisone, 360 sec, vehicle 178%): 183% | percentage increase in fluorescence intensity over baseline (leukocytes; RA patient #12 on Etanercept, 180 sec, vehicle 61%): 17% | percentage increase in fluorescence intensity over baseline (leukocytes; RA patient #12 on Etanercept, 360 sec, vehicle 131%): 53% | number of adherent leukocytes (in words) (leukocytes; whole blood from RA patients (mild, moderate, severe) on standard of care, in vitro addition of 3 uM): reduces the number of adherent cells | number of leukocytes adhering to collagen and JAM-C coated surface (in words) (leukocytes; whole blood from healthy donors without inflammatory disease): reduces the number of leukocytes adhering

SMILES: COc1cc(Nc2ncc(F)c(Nc3ccc4c(n3)N(COP(=O)(O)O)C(=O)C(C)(C)O4)n2)cc(OC)c1OC [Fostamatinib disodium]
activity against Flt3 (Flt3): active | activity against cKit (cKit): active | activity against JAK kinases (JAK kinases): active | activity against Src kinase (Src kinase): not against Src kinsase

rats suffering from lymphopenia ([2]; Lewis, rat, in vivo, 16 day): 3 out of 4 | lymphocyte count (group) ([2]; rat, in vivo): 2320 µL⁻¹
SMILES: C[C@@H]1C[C@H]2[C@@H]3CCC4=CC(=O)C=C[C@]4(C)[C@@]3(F)[C@@H](O)C[C@]2(C)[C@@]1(O)C(=O)CO [Dexamethasone, reference compound]
Maximum Inflammation Score measurement ([1]; Dexamethasone 1 mg/Kg): 1.50 | Mean Inflammation Score ([1]; Dexamethasone 1 mg/Kg): 0.188 | Minimum Inflammation Score measurement ([1]; Dexamethasone 1 mg/Kg): 0.0

SMILES: COc1cccc2c1C(=O)c1c(O)c3c(c(O)c1C2=O)C[C@@](O)(C(=O)CO)C[C@@H]3O[C@H]1C[C@H](N)[C@H](O)[C@H](C)O1 [Doxorubicin, reference compound]
inhibitory activity on viability of DHL4 cells (in words) (DHL4): dose responsive inhibitory activity

SMILES: CN(Cc1cnc2nc(N)nc(N)c2n1)c1ccc(C(=O)N[C@@H](CCC(=O)O)C(=O)O)cc1 [Methotrexate, reference compound]
Maximum Inflammation Score measurement ([1]; Methotrexate 0.1 mg/kg): 4.63 | Minimum Inflammation Score measurement ([1]; Methotrexate 0.1 mg/kg): 1.25 | Mean Inflammation Score ([1]; Methotrexate 0.1 mg/kg, all animals over entire time course): 3.65 | Maximum Inflammation Score measurement ([1]; Methotrexate 0.3 mg/kg): 5.00 | Minimum Inflammation Score measurement ([1]; Methotrexate 0.3 mg/kg): 1.00 | Mean Inflammation Score ([1]; Methotrexate 0.3 mg/kg, all animals over entire time course): 4.02 | Maximum Inflammation Score measurement ([1]; Methotrexate 1.0 mg/kg): 4.00 | Minimum Inflammation Score measurement ([1]; Methotrexate 1.0 mg/kg): 1.13 | Mean Inflammation Score ([1]; Methotrexate 1.0 mg/kg, all animals over entire time course): 2.90 | Maximum Inflammation Score measurement ([1]; Methotrexate 2.0 mg/kg): 2.50 | Minimum Inflammation Score measurement ([1]; Methotrexate 2.0 mg/kg): 1.00 | Mean Inflammation Score ([1]; Methotrexate 2.0 mg/kg, all animals over entire time course): 2.11
